According to US20250114359A1, “METHODS FOR […] G[…]/OR HEXOKINASE” (UNIVERSITY OF SOUTH CAROLINA, priority 2023, published 2025):
pKi: −log10 of the molar value.

Target: Trypanosoma cruzi glucokinase (TcGlcK) (Trypanosoma cruzi, UniProt Q4E4E1)
Test: Determination of Ki values by type 1 and type 2 Dixon plots;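 also: compounds supplied as 10 mM DMSO stocks (100 µL format), with a non-inhibitory compound run alongside for comparison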
Type: biochemical
Settings: not given

Chain of Trypanosoma cruzi glucokinase (TcGlcK) (Q4E4E1 1-376): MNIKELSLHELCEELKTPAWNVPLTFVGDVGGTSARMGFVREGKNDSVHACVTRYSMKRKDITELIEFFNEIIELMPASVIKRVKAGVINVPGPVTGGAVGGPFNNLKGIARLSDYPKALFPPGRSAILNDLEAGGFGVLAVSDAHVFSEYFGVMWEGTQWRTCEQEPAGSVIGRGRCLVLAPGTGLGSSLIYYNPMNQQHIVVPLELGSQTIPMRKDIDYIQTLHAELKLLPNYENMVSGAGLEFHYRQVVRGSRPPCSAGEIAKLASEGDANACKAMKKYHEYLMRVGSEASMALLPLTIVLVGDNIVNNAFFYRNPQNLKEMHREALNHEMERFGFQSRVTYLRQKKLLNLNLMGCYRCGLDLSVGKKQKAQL

Point of comparison: Cc1cc2c(c(O)c1-c1c(C)cc3c(c1O)/C(=C/NC(C)CCc1ccco1)C(=O)C(O)=C3C(C)C)/C(=C/NC(C)CCc1ccco1)C(=O)C(O)=C2C(C)C (stereo not drawn) [Inhibitor 73], pKi 5.69. Against it:
- Cc1cc(OCC/N=C/c2c(O)c(O)c(C(C)C)c3cc(C)c(-c4c(C)cc5c(C(C)C)c(O)c(O)c(/C=N/CCOc6cc(C)c(Cl)c(C)c6Cl)c5c4O)c(O)c23)c(Cl)c(C)c1Cl (atropisomer, axis not shown) [Inhibitor 79] — 1.79 log units lower, 3.90
- Cc1cc2c(c(O)c1-c1c(C)cc3c(c1O)/C(=C/NCc1cccnc1)C(=O)C(O)=C3C(C)C)/C(=C/NCc1cccnc1)C(=O)C(O)=C2C(C)C (atropisomer, axis not shown) [Inhibitor 74] — 1.78 log units lower, 3.91
- Cc1cc2c(c(O)c1-c1c(C)cc3c(c1O)/C(=C\Nc1c(O)cc(S(=O)(=O)O)c4ccccc14)C(=O)C(O)=C3C(C)C)/C(=C/Nc1c(O)cc(S(=O)(=O)O)c3ccccc13)C(=O)C(O)=C2C(C)C [Inhibitor 29] — 0.67 log units lower, 5.02
- Cc1cc2nc[nH]c2c(/N=C/c2c(O)c(O)c(C(C)C)c3cc(C)c(-c4c(C)cc5c(C(C)C)c(O)c(O)c(/C=N/c6c(C)c(C)cc7nc[nH]c67)c5c4O)c(O)c23)c1C (atropisomer, axis not shown) [Inhibitor 86] — within 0.2 log units, 5.59
- CN(C)c1ccc(/C=C2/SC(=S)NC2=O)cc1 [Inhibitor 68] — 0.88 log units higher, 6.57
- Cc1ccc(OCC/N=C/c2c(O)c(O)c(C(C)C)c3cc(C)c(-c4c(C)cc5c(C(C)C)c(O)c(O)c(/C=N/CCOc6ccc(C)cc6Br)c5c4O)c(O)c23)c(Br)c1 (atropisomer, axis not shown) [Inhibitor 77] — 1.32 log units lower, 4.37
- Cc1cc2c(C(C)C)c(O)c(O)c(/C=N/NC(=O)c3ccoc3C)c2c(O)c1-c1c(C)cc2c(C(C)C)c(O)c(O)c(/C=N/NC(=O)c3ccoc3C)c2c1O (atropisomer, axis not shown) [Inhibitor 39] — 0.65 log units lower, 5.04
- CCOC(=O)Nc1ccc(/N=C/c2c(O)c(O)c(C(C)C)c3cc(C)c(-c4c(C)cc5c(C(C)C)c(O)c(O)c(/C=N/c6ccc(NC(=O)OCC)cc6)c5c4O)c(O)c23)cc1 [Inhibitor 12] — 3.36 log units lower, 2.33
- CCCSCC/N=C/c1c(O)c(O)c(C(C)C)c2cc(C)c(-c3c(C)cc4c(C(C)C)c(O)c(O)c(/C=N/CCSCC)c4c3O)c(O)c12 (atropisomer, axis not shown) [Inhibitor 83] — 1.62 log units lower, 4.07
- COc1c(C)cc(/N=C/c2c(O)c(O)c(C(C)C)c3cc(C)c(-c4c(C)cc5c(C(C)C)c(O)c(O)c(/C=N/c6cc(C)c(OC)c(C)c6)c5c4O)c(O)c23)cc1C (atropisomer, axis not shown) [Inhibitor 49] — 0.90 log units lower, 4.79

Same assay, conditions: type 1 and type 2 Dixon plots; comparison compound

Cc1cc2c(C(C)C)c(O)c(O)c(/C=N/NC(N)=S)c2c(O)c1-c1c(O)cc2c(/C=N/NC(N)=S)c(O)c(O)c(C(C)C)c2c1C [comparative compound, reference compound] was tested, and the “inhibition (Dixon plots)” value was “does not exhibit inhibition”.
